Experimental data from US20210139902A1, “RNAI TARGET GENE THAT IS HIGHLY LETHAL TO APHIDS AND USE THEREOF” (CAS Center For Excellence in Molecular Plant Sciences, priority 2018, published 2021).

Tested on: green peach aphid
Assay: Field test of green peach aphid: dsRNA spray compared with imidacloprid
Type: in vivo, Myzus persicae
Settings: dsRNA 300 ng/μl in water, 300 μl per plant, imidacloprid 10,000 times solution
Source text: Control effect (%)=(1−CK0×PT1/CK1×PT0)×100
wherein PT0: the number of insects before drug administration in the treatment area; PT1: the number of insects after drug administration in the treatment area; • CK0: the number of insects before drug administration in the control area; CK1: the number of insects after drug administration in the control area.
the dropping rate of insect population (%)=[(number of insects before drug administration−number of insects after drug administration)/number of insects before drug administration]×100
1. Radish seedlings of 12-15 days, inoculated with 100 insects, stabilized for 1 day, sprayed with dsRNA the next day.
2. The concentration of dsRNA used for spraying was 300 ng/μl. The synthesized dsRNA was dissolved in water and sprayed 300 μl per plant.
3. The concentration of imidacloprid was 10,000 times solution (Germany Bayer Emerald 70% imidacloprid 3 g, water dispersible granules), sprayed 300 μl per plant.
4. The experiment method: spray treatment, 4 replicates for each treatment.

O=[N+]([O-])NC1=NCCN1Cc1ccc(Cl)nc1 [Imidacloprid, imidacloprid]
Field test of green peach aphid: Control effect, 1 d (1 d): 70.96 ± 4.25 Cc %
Field test of green peach aphid: the dropping rate of insect population, 1 d (1 d, radish seedlings, 100 insects): 37.33 ± 9.65 Bb %
Field test of green peach aphid: Control effect, 3 d (3 d): 93.78 ± 3.14 Cb %
Field test of green peach aphid: the dropping rate of insect population, 3 d (3 d, radish seedlings, 100 insects): 75.83 ± 15.25 Bb %
Field test of green peach aphid: Control effect, 5 d (5 d): 97.37 ± 1.88 Bb %
Field test of green peach aphid: the dropping rate of insect population, 5 d (5 d, radish seedlings, 100 insects): 84.35 ± 9.60 Bb %
